Data as given in patent US8835644B2, “Broad spectrum benzothiophene-nitrothiazolide and other antimicrobials” (University of Virginia Patent Foundation, priority 2009, dated 2014).
≈ marks a conversion by molar mass, not a printed value. Structures can show the parent of a compound that is named as a salt. Where two headings read alike, the source gives them in different places.

Tests used:
S. epidermidis = assay: MIC testing by broth dilution, S. epidermidis plank; assay type: cell-based, Staphylococcus epidermidis
Procedure: (§1) A standard broth dilution protocol was used in 96 well microplates containing a standard dilution of the microorganism to be tested in 100 microliters of the appropriate medium. Appropriate medium: E. coli, LB medium; Staphylococcus strains, Trypticase Soy; and for H. pylori and C. jejuni, Brain Heart Infusion. The compounds to be tested were set at 32 μg/ml in 200 microliters in well one and then serially diluted to provide a range from 32 to 0.06. The wells were scored visually at 24 h. The well where there was no growth was recorded as the MIC. Clostridium difficile was tested by agar diffusion and disk diffusion (Kirby Bower) methods under anaerobic conditions on Wilkins Chalgrin agar. In these assays, zone of inhibited growth was measured and compared by relative ratio to the zone recorded for NTZ.
(§2) Representative compounds of the invention were tested in a series of assays against a series of organisms as described above. […] The organisms tested include, C. difficile, H. pylori, C. jejuni, MRSA, S. epidermidis, and E. coli. S. epidermidis and E. coli were tested in the plank and biofilm assay. A disk diffusion assay was also used for C. difficile. Direct PFOR enzyme assays were also performed. All analogues and derivatives were not tested on every organism in every type of assay (the “-” in each table means that it was not tested).

H. pylori = assay: MIC testing by broth dilution, H. pylori; assay type: cell-based, Helicobacter pylori
Procedure: as §1, §2

C. jejuni = assay: MIC testing by broth dilution, C. jejuni; assay type: cell-based, Campylobacter jejuni
Procedure: as §1, §2

E. coli = assay: MIC testing by broth dilution, E. coli plank; assay type: cell-based, Escherichia coli
Procedure: as §1, §2

MRSA = assay: MIC testing by broth dilution, MRSA; assay type: cell-based, Staphylococcus aureus
Procedure: as §1, §2

[1] = broth dilution, Trypticase Soy, 24 h, read-out: MIC (μM) S. epidermidis Plank
[2] = broth dilution, Brain Heart Infusion, 24 h, read-out: MIC (μM) H. pylori
[3] = broth dilution, Brain Heart Infusion, 24 h, read-out: MIC (μM) C. jejuni
[4] = broth dilution, LB medium, 24 h, read-out: MIC (μM) E. coli Plank
[5] = broth dilution, Trypticase Soy, 24 h, read-out: MIC (μM) MRSA
[6] = Staphylococcus epidermidis, 24 h, read-out: MIC (μM) S. epidermidis Plank
[7] = Helicobacter pylori, 24 h, read-out: MIC (μM) H. pylori
[8] = Campylobacter jejuni, 24 h, read-out: MIC (μM) C. jejuni
[9] = Escherichia coli, 24 h, read-out: MIC (μM) E. coli Plank
[10] = Staphylococcus aureus, MRSA, 24 h, read-out: MIC (μM) MRSA

Compound	MIC (S. epidermidis; [1]) [µM]	MIC (H. pylori; [2]) [µM]	MIC (C. jejuni; [3]) [µM]	MIC (E. coli; [4]) [µM]	MIC (MRSA; [5]) [µM]	further results
Cl.NCCOc1cc([N+](=O)[O-])ccc1C(=O)Nc1ncc([N+](=O)[O-])s1 [VPC161256]	82.1	1.3	5.1	82.1	82.1	–
COc1cc2cc(C(=O)Nc3ncc([N+](=O)[O-])s3)sc2cc1F [VPC161259]	–	–	–	–	–	MIC (S. epidermidis; planktonic, Thiophene analogues table, read-out: MIC S. epidermidis Plank): 11.3 µM (≈ 3.99 µg/mL); MIC (H. pylori; Thiophene analogues table, read-out: MIC H. pylori): 2.1 µM (≈ 0.742 µg/mL); MIC (C. jejuni; Thiophene analogues table, read-out: MIC C. jejuni): 11.3 µM (≈ 3.99 µg/mL); MIC (E. coli; planktonic, Thiophene analogues table, read-out: MIC E. coli Plank): 90.6 µM (≈ 32 µg/mL); MIC (MRSA; Thiophene analogues table, read-out: MIC MRSA): 11.3 µM (≈ 3.99 µg/mL)
O=C(O)COc1ccccc1C(=O)Nc1ncc([N+](=O)[O-])s1 [VPC162042, 2-(2-(5-nitrothiazol-2-ylcarbamoyl)phenoxy)acetic acid]	–	–	–	–	–	MIC (S. epidermidis; [6]): 99 µM (≈ 32 µg/mL); MIC (H. pylori; [7]): 49.5 µM (≈ 16 µg/mL); MIC (C. jejuni; [8]): 99 µM (≈ 32 µg/mL); MIC (E. coli; [9]): 99 µM (≈ 32 µg/mL); MIC (MRSA; [10]): 99 µM (≈ 32 µg/mL)
O=C(O)COc1ccc(C(=O)Nc2ncc([N+](=O)[O-])s2)cc1 [VPC162043]	99.0 (≈ 32 µg/mL)	99.0 (≈ 32 µg/mL)	99.0 (≈ 32 µg/mL)	99.0 (≈ 32 µg/mL)	99.0 (≈ 32 µg/mL)	–
Cl.O=C(Nc1ncc([N+](=O)[O-])s1)c1ccccc1OCCNC(=O)C1CCNCC1 [VPC162068]	70.2	52.6	35.1	70.2	70.2	–
NCCOC(=O)COc1ccccc1C(=O)Nc1ncc([N+](=O)[O-])s1 [VPC162082, 2-Aminoethyl 2-(2-(5-nitrothiazol-2-ylcarbamoyl)phenoxy)acetate hydrochloride]	–	–	–	–	–	MIC (S. epidermidis; [6]): 79.4 µM; MIC (H. pylori; [7]): 6.2 µM; MIC (C. jejuni; [8]): 29.8 µM; MIC (E. coli; [9]): 79.4 µM; MIC (MRSA; [10]): 79.4 µM
Cl.O=C(COc1ccccc1C(=O)Nc1ncc([N+](=O)[O-])s1)OC1CNC1 [VPC162083]	77.1	24.1	77.1	77.1	77.1	–

Further lines, with some results ahead:

MIC (S. epidermidis; [1]) [µM]	MIC (H. pylori; [2]) [µM]	MIC (C. jejuni; [3]) [µM]	MIC (E. coli; [4]) [µM]	MIC (MRSA; [5]) [µM]	Compound	further results
2.9 (≈ 0.996 µg/mL)	0.6 (≈ 0.206 µg/mL)	93.2 (≈ 32 µg/mL)	93.2 (≈ 32 µg/mL)	93.2 (≈ 32 µg/mL)	O=C(C=Cc1ccc(C(F)(F)F)cc1)Nc1ncc([N+](=O)[O-])s1 [VPC161239]	–
84.3 (≈ 32 µg/mL)	0.5 (≈ 0.19 µg/mL)	84.4 (≈ 32 µg/mL)	84.3 (≈ 32 µg/mL)	84.3 (≈ 32 µg/mL)	CC(C)(C)OC(=O)COc1ccc(C(=O)Nc2ncc([N+](=O)[O-])s2)cc1 [VPC162036]	–
111.0 (≈ 34 µg/mL)	6.9 (≈ 2.11 µg/mL)	41.6 (≈ 12.7 µg/mL)	111.0 (≈ 34 µg/mL)	55.5 (≈ 17 µg/mL)	CC(=O)Nc1ccccc1C(=O)Nc1ncc([N+](=O)[O-])s1 [VPC162046b]	–
95.1 (≈ 32 µg/mL)	1.5 (≈ 0.505 µg/mL)	17.8 (≈ 5.99 µg/mL)	95.1 (≈ 32 µg/mL)	95.1 (≈ 32 µg/mL)	CN(C)CCOc1ccccc1C(=O)Nc1ncc([N+](=O)[O-])s1 [VPC162052]	–
80.3 (≈ 32 µg/mL)	0.9 (≈ 0.359 µg/mL)	80.3 (≈ 32 µg/mL)	80.3 (≈ 32 µg/mL)	80.3 (≈ 32 µg/mL)	O=C(COc1ccccc1C(=O)Nc1ncc([N+](=O)[O-])s1)Nc1ccccc1 [VPC162056]	–
4.9 (≈ 1.99 µg/mL)	1.9 (≈ 0.772 µg/mL)	78.7 (≈ 32 µg/mL)	78.7 (≈ 32 µg/mL)	78.7 (≈ 32 µg/mL)	CCCCCCNC(=O)COc1ccccc1C(=O)Nc1ncc([N+](=O)[O-])s1 [VPC162064]	–
27.6 (≈ 12 µg/mL)	2.3 (≈ 1 µg/mL)	36.7 (≈ 16 µg/mL)	73.5 (≈ 32 µg/mL)	73.5 (≈ 32 µg/mL)	O=C(COc1ccccc1C(=O)Nc1ncc([N+](=O)[O-])s1)NCCN1CCOCC1 [VPC162065]	–
